Measured values published in PubChem BioAssay AID2060500 (Molecular Pharmacology Branch, DTP, NCI, 2025).
Blank lines part the entries; values can stand above or below the molecule they belong to.

System: 596521-263-R-J1-PDC complex spheroids, viability % of control
Assay: Anticancer human tumor 596521-263-R-J1-PDC patient-derived soft tissue sarcoma cell line growth inhibition [GQUAD]
Conditions: for IC50: curve of first compound; for viability, T/C: stronger effect = lower value
Method in brief: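 Tumor cells were grown as complex spheroids with HUVEC endothelial cells and mesenchymal stem cells as stroma. G-quadruplex stabilizers were combined with targeted agents over half-log dilutions from near the clinical Cmax, or from 10 microM.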

[1] = second compound 0.0316 µM, first compound 0.0316 µM
[2] = second compound 0.0316 µM, first compound 0.316 µM
[3] = second compound 0.1 µM, first compound 0.0316 µM
[4] = second compound 0.1 µM, first compound 0.316 µM
[5] = second compound 0.316 µM, first compound 0.0316 µM
[6] = second compound 0.316 µM, first compound 0.316 µM
[7] = second compound 1 µM, first compound 0.0316 µM
[8] = second compound 1 µM, first compound 0.316 µM
[9] = second compound 3.16 µM, first compound 0.0316 µM
[10] = second compound 3.16 µM, first compound 0.316 µM
[11] = second compound 10 µM, first compound 0.0316 µM
[12] = second compound 10 µM, first compound 0.316 µM
[13] = second compound 0.0316 µM, first compound 0.1 µM
[14] = second compound 0.0316 µM, first compound 1 µM
[15] = second compound 0.0316 µM, first compound 3.16 µM
[16] = second compound 0.0316 µM, first compound 10 µM
[17] = second compound 0.1 µM, first compound 0.1 µM
[18] = second compound 0.1 µM, first compound 1 µM
[19] = second compound 0.1 µM, first compound 3.16 µM
[20] = second compound 0.1 µM, first compound 10 µM
[21] = second compound 0.316 µM, first compound 0.1 µM
[22] = second compound 0.316 µM, first compound 1 µM
[23] = second compound 0.316 µM, first compound 3.16 µM
[24] = second compound 0.316 µM, first compound 10 µM
[25] = second compound 1 µM, first compound 0.1 µM
[26] = second compound 1 µM, first compound 1 µM
[27] = second compound 1 µM, first compound 3.16 µM
[28] = second compound 1 µM, first compound 10 µM
[29] = second compound 3.16 µM, first compound 0.1 µM
[30] = second compound 3.16 µM, first compound 1 µM
[31] = second compound 3.16 µM, first compound 3.16 µM
[32] = second compound 3.16 µM, first compound 10 µM
[33] = second compound 10 µM, first compound 0.1 µM
[34] = second compound 10 µM, first compound 1 µM
[35] = second compound 10 µM, first compound 3.16 µM
[36] = second compound 10 µM, first compound 10 µM
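Also: spheroids exposed to drugs for 7 days before viability reading.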
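For viability, T/C in this document: 100% = DMSO vehicle control viability.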

IC50 (second compound 0.0316 µM): > 316 nM | IC50 (second compound 0.1 µM): > 316 nM | IC50 (second compound 0.316 µM): > 316 nM | IC50 (second compound 1 µM): > 316 nM | IC50 (second compound 3.16 µM): > 316 nM | IC50 (second compound 10 µM): < 0.999 nM
Compound: CC[C@@]1(O)C(=O)OCc2c1cc1n(c2=O)Cc2cc3c(CN(C)C)c(O)ccc3nc2-1 + Cc1cnc(CNC(=O)c2c(=O)c3ccc(N4CCCN(C)CC4)nc3n3c2sc2ccccc23)cn1
viability, T/C (second compound 0.0316 µM, first compound 0.000999 µM): 107% | viability, T/C (second compound 0.0316 µM, first compound 0.00316 µM): 102% | viability, T/C (second compound 0.0316 µM, first compound 0.00999 µM): 78.7% | viability, T/C [1]: 66.5% | viability, T/C (second compound 0.0316 µM, first compound 0.0999 µM): 60.1% | viability, T/C [2]: 60.1% | viability, T/C (second compound 0.1 µM, first compound 0.000999 µM): 88.9% | viability, T/C (second compound 0.1 µM, first compound 0.00316 µM): 85% | viability, T/C (second compound 0.1 µM, first compound 0.00999 µM): 76.5% | viability, T/C [3]: 69.3% | viability, T/C (second compound 0.1 µM, first compound 0.0999 µM): 57.2% | viability, T/C [4]: 50.9% | viability, T/C (second compound 0.316 µM, first compound 0.000999 µM): 90.1% | viability, T/C (second compound 0.316 µM, first compound 0.00316 µM): 86.7% | viability, T/C (second compound 0.316 µM, first compound 0.00999 µM): 78.3% | viability, T/C [5]: 63% | viability, T/C (second compound 0.316 µM, first compound 0.0999 µM): 67.1% | viability, T/C [6]: 65.7% | viability, T/C (second compound 1 µM, first compound 0.000999 µM): 70.8% | viability, T/C (second compound 1 µM, first compound 0.00316 µM): 60.2% | viability, T/C (second compound 1 µM, first compound 0.00999 µM): 60.4% | viability, T/C [7]: 63.2% | viability, T/C (second compound 1 µM, first compound 0.0999 µM): 59.3% | viability, T/C [8]: 55.8% | viability, T/C (second compound 3.16 µM, first compound 0.000999 µM): 54.3% | viability, T/C (second compound 3.16 µM, first compound 0.00316 µM): 60.7% | viability, T/C (second compound 3.16 µM, first compound 0.00999 µM): 51.5% | viability, T/C [9]: 54.4% | viability, T/C (second compound 3.16 µM, first compound 0.0999 µM): 58% | viability, T/C [10]: 56.2% | viability, T/C (second compound 10 µM, first compound 0.000999 µM): 46.5% | viability, T/C (second compound 10 µM, first compound 0.00316 µM): 47.1% | viability, T/C (second compound 10 µM, first compound 0.00999 µM): 49.7% | viability, T/C [11]: 43.7% | viability, T/C (second compound 10 µM, first compound 0.0999 µM): 49.4% | viability, T/C [12]: 49%

IC50 (second compound 0.0316 µM): > 10000 nM | IC50 (second compound 0.1 µM): > 10000 nM | IC50 (second compound 0.316 µM): > 10000 nM | IC50 (second compound 1 µM): > 10000 nM | IC50 (second compound 3.16 µM): > 10000 nM | IC50 (second compound 10 µM): < 31.6 nM
Compound: C=CC(=O)N1CCN(c2nc(=O)n(-c3c(C)ccnc3C(C)C)c3nc(-c4c(O)cccc4F)c(F)cc23)C(C)C1 (stereo unspecified) + Cc1cnc(CNC(=O)c2c(=O)c3ccc(N4CCCN(C)CC4)nc3n3c2sc2ccccc23)cn1
viability, T/C [1]: 104% | viability, T/C [13]: 101% | viability, T/C [2]: 103% | viability, T/C [14]: 112% | viability, T/C [15]: 108% | viability, T/C [16]: 75.8% | viability, T/C [3]: 88.3% | viability, T/C [17]: 86.1% | viability, T/C [4]: 91.8% | viability, T/C [18]: 107% | viability, T/C [19]: 103% | viability, T/C [20]: 77.6% | viability, T/C [5]: 89.5% | viability, T/C [21]: 85.1% | viability, T/C [6]: 90.5% | viability, T/C [22]: 81.1% | viability, T/C [23]: 92.4% | viability, T/C [24]: 69.1% | viability, T/C [7]: 67.8% | viability, T/C [25]: 64.8% | viability, T/C [8]: 67% | viability, T/C [26]: 71.2% | viability, T/C [27]: 76.7% | viability, T/C [28]: 63.2% | viability, T/C [9]: 57.2% | viability, T/C [29]: 56.5% | viability, T/C [10]: 61.8% | viability, T/C [30]: 60% | viability, T/C [31]: 81.4% | viability, T/C [32]: 61.8% | viability, T/C [11]: 51.1% | viability, T/C [33]: 30.9% | viability, T/C [12]: 48.6% | viability, T/C [34]: 51% | viability, T/C [35]: 63.7% | viability, T/C [36]: 39.5%

Compound: COc1ncnc(C2CC2)c1-c1ncc2cnn(Cc3ccc(-c4nc(C(F)(F)F)cn4C(C)C)cc3)c2n1 + Cc1[nH]c2ccc(F)cc2c1-c1nc2c3cccnc3c3ncccc3c2[nH]1
IC50 (second compound 0.0316 µM): 1460 nM | IC50 (second compound 0.1 µM): 1500 nM | IC50 (second compound 0.316 µM): 1190 nM | IC50 (second compound 1 µM): 1190 nM | IC50 (second compound 3.16 µM): 1200 nM | IC50 (second compound 10 µM): 991 nM | viability, T/C [1]: 100% | viability, T/C [13]: 88.8% | viability, T/C [2]: 79.6% | viability, T/C [14]: 56.9% | viability, T/C [15]: 33.5% | viability, T/C [16]: 2.52% | viability, T/C [3]: 98.8% | viability, T/C [17]: 90.4% | viability, T/C [4]: 75.6% | viability, T/C [18]: 67% | viability, T/C [19]: 27.1% | viability, T/C [20]: 2.12% | viability, T/C [5]: 85.8% | viability, T/C [21]: 95.4% | viability, T/C [6]: 80.3% | viability, T/C [22]: 49.7% | viability, T/C [23]: 27.8% | viability, T/C [24]: 1.85% | viability, T/C [7]: 87.2% | viability, T/C [25]: 78.8% | viability, T/C [8]: 75% | viability, T/C [26]: 49.9% | viability, T/C [27]: 31.1% | viability, T/C [28]: 1.7% | viability, T/C [9]: 84.9% | viability, T/C [29]: 95.3% | viability, T/C [10]: 68.5% | viability, T/C [30]: 53.9% | viability, T/C [31]: 29.4% | viability, T/C [32]: 2.26% | viability, T/C [11]: 95.4% | viability, T/C [33]: 76.7% | viability, T/C [12]: 71.3% | viability, T/C [34]: 54.6% | viability, T/C [35]: 20.6% | viability, T/C [36]: 1.93%
